From US20150038435A1, “N-TERMINALLY MODIFIED OLIGOPEPTIDES AND USES THEREOF” (Novo Nordisk A/S, priority 2012, published 2015)
*: point of attachment. Lauroyl = CCCCCCCCCCCC(=O)*

What was measured:
[1] = tested on: Chymotrypsin; experiment: Inhibition of enzymatic degradation of a model GLP-1 (FRET substrate) by chymotrypsin; format: biochemical
Procedure, shortened: (§1)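 Initial-rate slopes of fluorescence rise (320 nm ex, 405 nm em), fitted over the linear early phase and averaged from duplicates, were plotted against inhibitor concentration and fitted logistically to give EC50. Reactions ran at 37° C in Dulbecco's PBS, with MCA/DNP GLP-1 FRET substrate added as 10 μl of 100 μM stock.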

[2] = Hydrophobicity: retention time during reverse phase HPLC; format: physicochemical; conditions: Acquity CSH C18; pH 7.2 buffer/CH3CN gradient; 40° C.
Source text: The retention time (RT) during reverse phase HPLC was taken as a measure of hydrophobicity of an N-terminally modified peptide or oligopeptide of the invention, where the connection is: The longer the RT, the more hydrophobic N-terminally modified peptide or oligopeptide. The following running conditions were applied during HPLC analysis:
Buffer B: 70% (v/v) aq. CH3CN

[3] = tested on: Trypsin; experiment: Inhibition of enzymatic degradation of a model GLP-1 (FRET substrate) by trypsin; format: biochemical
Procedure, shortened: as §1

[4] = compound 0.1 mM, buffer containing 8% DMSO

Substance	Slope of the initial increase in fluorescence obtained during incubation with 0.001 mg/ml Chymotrypsin [1, 4]	RT (retention time during reverse phase HPLC as a measure of hydrophobicity) [2]	Slope of the initial increase in fluorescence obtained during incubation with 0.001 mg/ml Trypsin [3, 4]	Slope of the initial increase in fluorescence obtained during incubation with 0.001 mg/ml Chymotrypsin ([1]; compound 1 mM)	Slope of the initial increase in fluorescence obtained during incubation with 0.001 mg/ml Trypsin ([3]; compound 1 mM)	EC50 ([1]; read-out: EC50 Chymotrypsin (0.001 mg/ml), 0.001 mg/ml chymotrypsin, 37° C., ± standard error if at least 3 measurements)	EC50 ([3]; read-out: EC50 Trypsin (0.001 mg/ml), 0.001 mg/ml trypsin, 37° C.)
N-dodecanoyl-Leu-Pro-Tyr-OH [Example 121]	0.34	7.77 min	1.35	–	–	–	–
N-dodecanoyl-Lys-Ala-Pro-Tyr-OH (Lauroyl-KAPY-OH; SMILES CCCCCCCCCCCC(=O)N[C@@H](CCCCN)C(=O)N[C@@H](C)C(=O)N1CCC[C@H]1C(=O)N[C@@H](Cc1ccc(O)cc1)C(=O)O) [Example 45]	0.89	4.62 min	1.84	–	–	–	–
N-dodecanoyl-Lys-Pro-Tyr-OH [Example 122]	0.26	5.17 min	1.68	–	–	–	–
N-dodecanoyl-Met-Ala-Ala-Pro-Tyr-OH (Lauroyl-MAAPY-OH; SMILES CCCCCCCCCCCC(=O)N[C@@H](CCSC)C(=O)N[C@@H](C)C(=O)N[C@@H](C)C(=O)N1CCC[C@H]1C(=O)N[C@@H](Cc1ccc(O)cc1)C(=O)O) [Example 46]	0.09	7.06 min	1.76	–	–	–	–
N-dodecanoyl-Met-Ala-Pro-Tyr-OH (Lauroyl-MAPY-OH; SMILES CCCCCCCCCCCC(=O)N[C@@H](CCSC)C(=O)N[C@@H](C)C(=O)N1CCC[C@H]1C(=O)N[C@@H](Cc1ccc(O)cc1)C(=O)O) [Example 47]	0.48	7.09 min	1.77	–	–	–	–
N-dodecanoyl-Met-Pro-Tyr-OH [Example 123]	0.82	7.23 min	2.11	–	–	–	–
N-dodecanoyl-OEG-OEG-DPhe-OEG-OH [Example 131]	–	6.21 min	–	0.53	0.62	–	–
N-dodecanoyl-OEG-OEG-DPhe-OH [Example 129]	–	6.34 min	–	0.16	0.38	341 µM	391 µM
N-dodecanoyl-OEG-OEG-Phe-OEG-OH [Example 130]	–	6.21 min	–	0.54	0.67	–	–
N-dodecanoyl-OEG-OEG-Phe-OH [Example 128]	–	3.08 min	–	0.86	0.35	–	–
N-dodecanoyl-Phe-Pro-Tyr-OH [Example 124]	0.12	8.19 min	0.63	–	–	–	–
N-dodecanoyl-Pro-Ala-Ala-Pro-Tyr-OH [Example 48]	0.07	6.2 min	1.55	–	–	–	–
N-dodecanoyl-Pro-Ala-Pro-Tyr-OH (Lauroyl-PAPY-OH; SMILES CCCCCCCCCCCC(=O)N1CCC[C@H]1C(=O)N[C@@H](C)C(=O)N1CCC[C@H]1C(=O)N[C@@H](Cc1ccc(O)cc1)C(=O)O) [Example 49]	0.57	6.2 min	1.96	–	–	–	–
N-dodecanoyl-Pro-Pro-Tyr-OH [Example 106]	1.72	6.01 min	1.75	–	–	–	–
N-dodecanoyl-Ser-Ala-Ala-Pro-Tyr-OH [Example 50]	0.09	5.16 min	1.48	–	–	–	–
N-dodecanoyl-Ser-Ala-Pro-Tyr-OH (Lauroyl-SAPY-OH; SMILES CCCCCCCCCCCC(=O)N[C@@H](CO)C(=O)N[C@@H](C)C(=O)N1CCC[C@H]1C(=O)N[C@@H](Cc1ccc(O)cc1)C(=O)O) [Example 51]	0.41	5.2 min	1.66	–	–	–	–
N-dodecanoyl-Ser-Pro-Tyr-OH [Example 107]	0.89	5.58 min	1.99	–	–	–	–
N-dodecanoyl-Thr-Ala-Ala-Pro-Tyr-OH [Example 52]	0.01	5.47 min	1.68	–	–	–	–
N-dodecanoyl-Thr-Ala-Pro-Tyr-OH (Lauroyl-TAPY-OH; SMILES CCCCCCCCCCCC(=O)N[C@H](C(=O)N[C@@H](C)C(=O)N1CCC[C@H]1C(=O)N[C@@H](Cc1ccc(O)cc1)C(=O)O)[C@@H](C)O) [Example 53]	0.16	5.52 min	1.80	–	–	–	–
N-dodecanoyl-Thr-Pro-Tyr-OH [Example 108]	0.59	5.72 min	1.92	–	–	–	–
